Assay results taken from patent US20060287395A1, “Pharmaceutical composition for the therapy of lower urinary tract symptoms” (ASTELLAS PHARMA INC., priority 1999, published 2006).
Structures can show the parent of a compound that is named as a salt.

Assays:
[1] = test system: patients suffering from lower urinary tract symptoms; test: Clinical test to patients suffering from lower urinary tract symptoms (twelve-week test); type: in vivo, human; conditions: total score for subjective symptom, QOL index and test on functions
Experimental: A clinical test was carried out under the following conditions using the patients suffering from lower urinary tract symptoms. Subjects: eighteen patients diagnosed as lower urinary tract symptoms, i.e. urinary disturbance without clear organic or neurological abnormality in lower urinary tract (15 males and 3 female, age: 57.2±14.2). Test drug and administering method: One capsule containing 0.2 mg of tamsulosin hydrochloride was orally administered once daily after breakfast for four weeks and, after that, the dose after 4 weeks was controlled in consideration of the following criterion, and the dose was orally administered once daily after breakfast. [table] Test period: twelve weeks (84 days) (4 weeks (28 days) for 8 males) Observed items: Evaluations and measurements were made for the following items before and after the administration. (1) Total score for subjective symptoms Total scores for the following <1>˜<7> before and after the administration were obtained in the same way as in Test Example 1. <1> Feel of residual urine, <2> Urination within two hours, <3> Break of urinary stream, <4> Urgency, <5> Force of urinary stream, <6> Straining upon urination and <7> Frequency of urination at night. (2) QOL Index “How do you think if the present urinating state continues in future as well?” (3) Test on Functions <1> maximum urinary stream rate <2> average urinary stream rate

[2] = test system: patients suffering from lower urinary tract symptoms; test: Clinical test to patients suffering from lower urinary tract symptoms (four-week test); type: in vivo, human; conditions: total score for subjective symptom and QOL index
Experimental: A clinical test was carried out under the following conditions using the patients suffering from lower urinary tract symptoms. (cf. Chapter 1: Indexes for Evaluation of Prostatic Hypertrophy in “Guideline for Clinical Test for Urinary Disturbance” published by Iyaku Tosho Shuppan) Subjects: four patients diagnosed as lower urinary tract symptoms, i.e. urinary disturbance without clear organic or neurological abnormality in lower urinary tract (3 males and 1 female). Test drug and administering method:. One capsule containing 0.2 mg of tamsulosin hydrochloride was orally administered once daily after breakfast. Test period: four weeks (28 days) Observed items: Evaluations and measurements were made for the following items before and after the administration. (1) Total score for subjective symptoms Questioning was done to the patients for the following items and the total score was obtained. (2) QOL Index With regard to an index for quality of life (QOL), a questioning that “How do you think if the present urinary condition continues in future as well?” was done as a total diagnosis concerning the urinary disturbance and any of the following evaluations was collected.

CCOc1ccccc1OCCN[C@H](C)Cc1ccc(OC)c(S(N)(=O)=O)c1 [tamsulosin hydrochloride, (R)(−)-5-[2-[[2-(o-ethoxyphenoxy)ethyl]amino]propyl]-2-methoxybenzene-sulfonamide]
Overall conclusion on efficacy as therapeutic agent for lower urinary tract symptoms [1]: confirmed to be effective | Overall conclusion on efficacy as therapeutic agent for lower urinary tract symptoms [2]: confirmed to be effective
